# According to ChEMBL document CHEMBL5260821, “2-Aminothiophene scaffolds: Diverse biological and pharmacological attributes in medicinal chemistry” (Eur J Med Chem, 2017):
# Key:
# HCT-15 = test: Antiproliferative activity against human HCT-15 cells assessed as reduction in cell viability measured for 48 hr by MTT assay; type: functional, cell-based; settings: HCT-15, 48 h
# Candida albicans = test: Antifungal activity against Candida albicans ATCC 10231 assessed as inhibition zone; type: functional
# T47D = test: Antiproliferative activity against human T47D cells assessed as reduction in cell viability measured for 48 hr by MTT assay; type: functional, cell-based
# Influenza A virus [1] = test: Antiviral activity against influenza A virus; type: functional, organism-based
# Escherichia coli = test: Antibacterial activity against Escherichia coli ATCC 11229 assessed as inhibition zone; type: functional
# Influenza A virus [2] = test: Antiviral activity against Influenza A virus A/WSN/33(H1N1) strain; type: functional, organism-based
# Staphylococcus aureus = test: Antibacterial activity against Staphylococcus aureus ATCC 6538 assessed as inhibition zone; type: functional
# A549 = test: Antiproliferative activity against human A549 cells assessed as reduction in cell viability measured for 48 hr by MTT assay; type: functional, cell-based; settings: A549, 48 h
# Influenza A virus [3] = test: Antiviral activity against Influenza A virus H3N2 subtype; type: functional, organism-based
# Neprilysin = Neprilysin (Homo sapiens, UniProt P08473); test: Partial agonist activity at human neprilysin expressed in CHP-212 cells; type: cell-based
# PC-3 = test: Antiproliferative activity against human PC-3 cells assessed as reduction in cell viability measured for 48 hr by MTT assay; type: functional, cell-based; settings: PC-3, 48 h
# CCRF-CEM = test: Antiproliferative activity against human CEM cells assessed as reduction in cell viability; type: functional, cell-based
# PANC-1 [4] = test: Antiproliferative activity against human PANC-1 cells assessed as reduction in cell viability at 25 to 50 uM relative to control; type: functional; settings: dose 25-50 µM
# HeLa [5] = test: Antiproliferative activity against human HeLa cells assessed as reduction in cell viability at 10 to 50 uM relative to control; type: functional; settings: dose 10-50 µM
# PANC-1 [6] = test: Induction of cell cycle arrest in human PANC-1 cells assessed as accumulation of cells in G0/G1 phase; type: functional
# HeLa [7] = test: Induction of cell cycle arrest in human HeLa cells assessed as accumulation of cells in subG1 phase; type: functional
# Chain of Neprilysin (P08473 whole entry): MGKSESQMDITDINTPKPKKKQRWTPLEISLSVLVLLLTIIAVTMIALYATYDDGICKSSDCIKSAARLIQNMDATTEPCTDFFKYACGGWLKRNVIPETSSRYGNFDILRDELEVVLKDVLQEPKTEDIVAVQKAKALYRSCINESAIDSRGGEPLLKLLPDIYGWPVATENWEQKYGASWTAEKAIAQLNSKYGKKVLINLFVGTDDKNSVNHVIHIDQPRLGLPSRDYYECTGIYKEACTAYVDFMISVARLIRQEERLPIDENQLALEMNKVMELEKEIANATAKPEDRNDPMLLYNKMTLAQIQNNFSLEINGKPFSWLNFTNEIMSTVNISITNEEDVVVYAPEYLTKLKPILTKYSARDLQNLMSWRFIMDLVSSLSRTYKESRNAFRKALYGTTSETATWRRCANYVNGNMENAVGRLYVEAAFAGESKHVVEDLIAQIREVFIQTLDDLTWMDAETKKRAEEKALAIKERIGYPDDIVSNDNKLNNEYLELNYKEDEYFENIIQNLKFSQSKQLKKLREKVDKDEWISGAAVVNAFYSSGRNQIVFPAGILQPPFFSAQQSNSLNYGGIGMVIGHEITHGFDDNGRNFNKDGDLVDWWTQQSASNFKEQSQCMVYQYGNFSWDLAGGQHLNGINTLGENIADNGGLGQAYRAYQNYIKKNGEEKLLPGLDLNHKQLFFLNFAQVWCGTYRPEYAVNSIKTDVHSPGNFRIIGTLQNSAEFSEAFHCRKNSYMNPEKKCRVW
structure (smiles),measurement,setting,value
CCOC(=O)c1c(N)sc(/N=C/c2ccc([N+](=O)[O-])o2)c1C(=O)OCC,IC50,HCT-15,10.2 µM
same,inhibition zone (IZ),Candida albicans,>22 mm
same,IC50,T47D,21.4 µM
same,IC50,Influenza A virus [1],0.79 µM
same,inhibition zone (IZ),Escherichia coli,16 mm
same,IC50,Influenza A virus [2],0.94 µM
same,inhibition zone (IZ),Staphylococcus aureus,22 mm
same,IC50,A549,22.8 µM
same,IC50,Influenza A virus [3],2.4 µM
CCCN(CC(F)(F)F)c1cc(Br)c(C#N)s1,EC50,Neprilysin,0.005 µM
CCOC(=O)c1c(N)sc(/N=C/c2ccc([N+](=O)[O-])s2)c1C(=O)OCC,IC50,HCT-15,6.1 µM
same,IC50,Influenza A virus [1],10.5 µM
same,IC50,Influenza A virus [2],3.56 µM
same,IC50,PC-3,10.9 µM
same,IC50,A549,1.3 µM
same,IC50,Influenza A virus [3],3.72 µM
COC(=O)c1cc(CSCc2ccc(C(C)C)cc2)sc1N,IC50,CCRF-CEM,0.46 µM
COc1ccc(Br)cc1/C=N/c1sc2c(c1C#N)CCCCC2,Activity,PANC-1 [4],50%
same,Activity,HeLa [5],35%
same,Activity,PANC-1 [6],28.2%
same,Activity,HeLa [7],6.2%
N#Cc1c(/N=C/c2ccc(F)cc2)sc2c1CCCC2,Activity,PANC-1 [4],68%
same,Activity,HeLa [5],50%
same,Activity,PANC-1 [6],9.3%
same,Activity,HeLa [7],12.05%
CCc1ccc(CSCc2cc(C(=O)OC)c(N)s2)cc1,IC50,CCRF-CEM,0.34 µM
